Data on 16 molecules can be found in PubChem BioAssay (NCI).

SMILES strings stand for the structures.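 Cells were grown in 96-well plates and exposed to each compound for 48 hours at five concentrations; endpoints were interpolated linearly between bracketing concentrations, or set to the highest concentration if not reached. TGI: total growth inhibition.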 Where only a bound is given, the exact number is not on record here.

Holding throughout (test): growth of human tumour cells (NCI), 48 h
Assay [1] deals with NCI-H226 lung.
Assay [2] concerns SK-MEL-5 melanoma.
Assay [3] relates to OVCAR-4 ovarian.
Assay [4] relates to UACC-257 melanoma.
In assay [5] the test system is CCRF-CEM leukemia.
For assay [6], the system named is NCI-H460 lung.
Assay [7] has as its system TK-10 renal.
Assay [8] deals with IGROV1 ovarian.
The test system of assay [9] is HCC-2998 colon.
Assay [10] relates to MALME-3M melanoma.
Assay [11] relates to NCI-H522 lung.
In assay [12] the test system is SK-OV-3 ovarian.
Assay [13] relates to NCI-H23 lung.
Assay [14] has as its system UACC-62 melanoma.
Assay [15] relates to SF-295 CNS.
The subject of assay [16] is A549 NSCLC.
Assay [17] concerns SNB-75 CNS.
The test system of assay [18] is MOLT-4 leukemia.
The test system of assay [19] is OVCAR-5 ovarian.
The test system of assay [20] is K-562 leukemia.

With `CCC(C)C(=O)OC1C(=O)OC2CC3C(C)=CC(=O)C(O)C3(C)C3C4(O)OCC23C1C(C)C4O` (configuration not stated), the TGI in assay [1] was under 0.031 µM; in assay [2], 0.025 µM; in assay [3], 0.262 µM; in assay [4], 1.34 µM; in assay [5] it was 0.0393 µM; in assay [6] it was 0.659 µM. Besides, the TGI in [7] was 0.845 µM; in [8], 0.175 µM; in [9] it was 0.227 µM; in assay [10], under 0.021 µM; in [11], under 0.0212 µM; in assay [12], 4.11 µM. Also, the TGI stood at 0.0431 µM in [13]; 0.188 µM in [14]; 0.126 µM in [15]; 2.38 µM in [16]; 0.113 µM in [17].

On to `CCOC(=O)/C=C/CC(C)(C)COC(C)=O`, for which the TGI in assay [1], in [3], in assay [4], in assay [5], in [18] and in [19] was over 10 µM throughout. The TGI in assay [6], in assay [7], in [9], in assay [11], in assay [12] and in assay [13] was over 10 µM throughout. In addition, the TGI in [14], in assay [15], in assay [20], in [16] and in assay [17] was over 10 µM throughout.

`CCN(CC)C(=O)c1cc(OC(C)C)ccc1-c1c(C)cc(OC(C)C)c(OC)c1OC`: the TGI in assay [1], in [2], in assay [3], in [5], in [18] and in [19] was over 100 µM throughout. The TGI in assay [6], in assay [7], in assay [8], in assay [9], in [10] and in assay [11] was over 100 µM throughout. Besides, the TGI in assay [12], in assay [13], in [14], in [20] and in assay [16] was over 100 µM throughout.

Consider `CCOC(=O)C1(CO)CSCCSC1`, for which the TGI in [1], in [2], in assay [4], in assay [5], in assay [18] and in assay [6] was over 100 µM in each case. Besides, the TGI in assay [7], in assay [9], in assay [11], in assay [12], in [13] and in assay [15] was over 100 µM throughout. Besides, the TGI in [20], in assay [16] and in assay [17] was over 100 µM in each case.

`CC(=O)c1c(-c2ccc(Cl)cc2)c(-c2ccc(Cl)cc2)n[nH]c1=O`: the TGI in assay [1] was over 100 µM; in [2] it was over 100 µM; in [3], 94.8 µM; in assay [4], over 100 µM; in assay [5], over 100 µM; in assay [18], over 100 µM. Further, the TGI in assay [19] is over 100 µM; in assay [6], over 100 µM; in [7] it was over 100 µM; in assay [8], over 100 µM; in [9], over 100 µM; in assay [10], 79 µM. Further, the TGI is over 100 µM in [12]; over 100 µM in assay [13]; 43.3 µM in [14]; over 100 µM in assay [15]; over 100 µM in assay [20]; over 100 µM in assay [16].

Regarding `Cc1[nH]c(=O)[nH]c(=O)c1/C=C/C(=O)NC(CO)CC(C)C` (configuration not stated), the TGI in assay [1] was over 375 µM; in assay [2], over 375 µM; in assay [3], over 375 µM; in [4] it was over 375 µM; in [5] it was over 375 µM; in [18] it was over 211 µM. For the same molecule, the TGI in assay [19] was over 375 µM; in assay [6], over 187 µM; in assay [8] it was over 375 µM; in assay [9], over 375 µM; in assay [10], over 375 µM; in assay [11], over 375 µM. Moreover, the TGI in assay [12] was over 375 µM; in [13], over 375 µM; in assay [14] it was over 375 µM; in assay [15], over 375 µM; in assay [20], over 237 µM; in assay [16], over 375 µM. In addition, the TGI in assay [17] is over 375 µM.

Turning to `NC(=O)NC1NC(=O)NC1=O` (configuration not stated), the TGI in assay [1], in [2], in assay [3], in assay [4], in assay [5] and in assay [18] was over 100 µM throughout. Moreover, the TGI in assay [19], in [6], in assay [7], in assay [8], in [9] and in assay [10] was over 100 µM in each case. The TGI in [11], in assay [12], in assay [13], in [14], in assay [15] and in assay [20] was over 100 µM throughout. Moreover, the TGI in [16] and in assay [17] was over 100 µM throughout.

For the molecule `C1=C(CC2=C[P+](c3ccccc3)(c3ccccc3)C=C(c3ccccc3)O2)OC(c2ccccc2)=C[P+]1(c1ccccc1)c1ccccc1`, the TGI was found to be 0.964 µM in assay [2]; 1.33 µM in assay [4]; 1.54 µM in assay [5]; 1.6 µM in assay [18]; 2.39 µM in [19]; 2.03 µM in assay [6]. The TGI was determined as 1.67 µM in assay [7]; 0.43 µM in [8]; 0.697 µM in assay [10]; 1.41 µM in assay [12]; 2.2 µM in assay [13]; 1.84 µM in [15]. Moreover, the TGI is 5.49 µM in assay [16] and 0.881 µM in [17].

In the case of `NC(CSS(=O)(=O)O)=NC1CC2CCC1C2` (configuration not stated), the TGI in [1], in [2], in assay [3], in assay [4], in assay [5] and in [18] was over 100 µM each time. Moreover, the TGI in assay [6], in assay [7], in [8], in assay [10], in assay [11] and in assay [12] was over 100 µM throughout. The TGI in assay [13], in [14], in assay [15], in assay [20], in [16] and in assay [17] was over 100 µM in each case.

With `[O-][n+]1nc(N2CCOCC2)nc2ccccc21`, the TGI in assay [1], in assay [4], in assay [5], in assay [18], in assay [19] and in assay [7] was over 100 µM in each case. In addition, the TGI in [8], in [9], in assay [10], in assay [11], in [12] and in assay [13] was over 100 µM throughout. Further, the TGI in [14], in [15], in assay [20], in [16] and in [17] was over 100 µM each time.

With `CCC1CN2CCc3cc(OC)c(OC)cc3C2CC1CC1c2cc(OC)c(OC)cc2CCN1C(=O)C(N)Cc1ccccc1` (configuration not stated), the TGI in [2] turned out to be 5.34 µM; in [4] it was 11.6 µM; in assay [5], 10.2 µM; in [18], 1.78 µM; in [19], 9.55 µM; in [6], 9.23 µM. Further, the TGI was 8.53 µM in [7]; 5.66 µM in assay [9]; 6.46 µM in [10]; 1.73 µM in assay [11]; 17.8 µM in [12]; 7.64 µM in assay [13]. Besides, the TGI in [14] was determined as 11.2 µM; in assay [15], 10.3 µM; in assay [20], 1.93 µM; in [16] it was 7.85 µM; in assay [17], 10.6 µM.

Turning to `N=C1C(=N)c2ccccc2-c2ccccc21.[Cl-].[Ru+2].c1cnc2c(c1)ccc1cccnc12.c1cnc2c(c1)ccc1cccnc12`, the TGI was 34.4 µM in [2]; 77.7 µM in assay [3]; 46.6 µM in assay [4]; 74.7 µM in [5]; 96.9 µM in assay [18]; over 100 µM in assay [19]. The TGI was over 100 µM in assay [6]; over 100 µM in assay [7]; 72.6 µM in [8]; over 100 µM in assay [9]; 73.6 µM in assay [10]; 54.7 µM in assay [11]. In addition, the TGI is over 100 µM in [12]; over 100 µM in [13]; over 100 µM in assay [14]; over 100 µM in assay [15]; 78.9 µM in assay [20]; over 100 µM in [16]. For the same molecule, the TGI in assay [17] was over 100 µM.

In the case of `CC(C)=CCc1c(O)cc(O)c2c1OC(c1ccc(O)cc1)C(O)C2=O` (configuration not stated), the TGI in assay [1] is 56.7 µM; in assay [2] it was 41.4 µM; in assay [3] it was over 100 µM; in assay [4] it was over 100 µM; in [19] it was 61.1 µM; in assay [6], 77.3 µM. Besides, the TGI is 60.6 µM in assay [7]; 88.9 µM in assay [8]; 56.3 µM in assay [9]; 70.4 µM in [10]; 42 µM in [11]; over 100 µM in assay [12]. In addition, the TGI in assay [13] is 45.8 µM; in assay [14], 46.8 µM; in assay [15], 67 µM; in assay [20], over 100 µM; in [16], 80.8 µM; in [17] it was 99 µM.

`CC(=O)OC1C=C(C=O)C(O)(C=O)C2(C)CCCC(C)(C)C12` (configuration not stated): the TGI was 4.62 µM in [1]; 2.2 µM in assay [2]; 4.01 µM in assay [3]; 5.68 µM in assay [4]; 0.706 µM in [5]; 0.629 µM in [18]. For the same molecule, the TGI in assay [19] turned out to be 8.16 µM; in [6] it was 4.21 µM; in assay [8], 6.05 µM; in assay [9], 5.75 µM; in assay [10], 2.33 µM; in assay [11] it was 1.16 µM. Besides, the TGI in assay [12] was 8.68 µM; in assay [13], 4.92 µM; in assay [14], 6.1 µM; in assay [15], 6.31 µM; in assay [20] it was 1.73 µM; in assay [16] it was 13.6 µM. For the same molecule, the TGI in assay [17] came to 5.82 µM.

As to `NCC(Cl)C(O)c1cnc(N)[nH]1` (configuration not stated), the TGI in assay [1] is 17.6 µM; in assay [2], 47.6 µM; in [3], 10.2 µM; in assay [4] it was 32 µM; in assay [5], over 83.6 µM; in [18], 2.65 µM. Also, the TGI is 20.6 µM in [19]; over 44.1 µM in [6]; 4.34 µM in assay [8]; 5.12 µM in [9]; 11.2 µM in [10]; 7.1 µM in assay [11]. The TGI in assay [12] was over 44.6 µM; in assay [13], 16 µM; in [14] it was 63 µM; in assay [15], 52.6 µM; in [20], over 100 µM; in assay [16] it was 9.28 µM. Also, in assay [17], the TGI worked out at 38.8 µM.

For the molecule `C=C(C)C1CC=C(C)C(=O)C1` (configuration not stated), the TGI in assay [1], in assay [2], in assay [3], in [4], in assay [5] and in assay [18] was over 100 µM in each case. Further, the TGI in [19], in assay [6], in assay [7], in assay [8], in assay [9] and in [10] was over 100 µM throughout. For the same molecule, the TGI in [11], in [13], in [15], in [20], in [16] and in assay [17] was over 100 µM throughout.
